Data on 29 molecules can be found in US20070185115A1, “Novel ureido-and amido-pyrazolone derivatives” (Aston University, priority 2003, published 2007).

Assay [1] has as its target T1, CCKB receptor (Cavia porcellus, UniProt H0VZC5).
T1 construct: Male guinea pig brain tissues were prepared according to the modified method described by Saita et al; from tissue; host or cells: guinea pig cerebral cortex membranes
T1 sequence (H0VZC5 1-426): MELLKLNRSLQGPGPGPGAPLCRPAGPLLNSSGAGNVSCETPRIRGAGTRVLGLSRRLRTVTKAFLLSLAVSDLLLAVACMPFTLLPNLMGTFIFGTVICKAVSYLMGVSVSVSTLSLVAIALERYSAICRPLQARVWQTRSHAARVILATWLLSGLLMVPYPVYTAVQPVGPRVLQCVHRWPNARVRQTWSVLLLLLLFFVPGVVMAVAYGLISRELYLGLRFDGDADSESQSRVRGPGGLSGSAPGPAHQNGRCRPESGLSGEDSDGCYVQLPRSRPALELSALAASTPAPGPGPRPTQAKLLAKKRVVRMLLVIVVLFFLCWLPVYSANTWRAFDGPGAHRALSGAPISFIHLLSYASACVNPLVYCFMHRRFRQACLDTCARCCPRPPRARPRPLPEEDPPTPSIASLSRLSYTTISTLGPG
Briefly: 125I-CCK-8 receptor binding assay, CCKB (guinea pig cerebral cortex membranes). The procedure: (§1) Pharmacological Methods—^[125]I-CCK-8 Receptor Binding Assay
(§2) CCKA and CCKB receptor binding assays were performed, by using guinea pig cerebral cortex (CCKB) or rat pancreas (CCKA). Male guinea pig brain tissues were prepared according to the modified method described by Saita et al, [(1994), Characterization of YM022: its CCKB/gastrin receptor binding profile and antagonism to CCK-8-induced Ca2+mobilization., Eur. J. PharmacoL,269, 249-254]. Pancreatic membranes were prepared in a similar way but by Charpentier et al, [(1988), Cyclic cholecystokinin analogues with high selectivity for central receptors., Proc Natl Acad Sci USA, 85, 1968-1972]. For the in vivo CCK binding assay tissues were homogenised in ice cold sucrose (0.32 M, 25 ml) for 15 strokes at 500 rpm and centrifuged at 13000 rpm for 10 mins. The supernatant was re-centrifuged at 13000 rpm for 20 mins. The resulting pellet was re-dispersed to the required volume of buffer at 500 rpm and stored in aliquots at […].
(§3) Binding was achieved using a.radioligand ^125I-Bolton-Hunter labeled CCK, NEN at 25 pM. The samples were incubated {with membranes (0.1 mg/ml)} in 20 mM Hepes, 1 mM EGTA, 5 mM MgCl2, 150 mm NaCl, 0.25 mg/ml bacitracin at pH 6.5 for 2 hrs at RT and then […] by centrifugation at 1100 rpm for 5 minutes. The membrane pellets were washed twice with water and the bound radioactivity was measured in a Packard Cobra Auto-gamma counter (B5005). All binding assays were carried out with L-365, 260 (Bock, M. G., et. al., Benzodiazepine gastrin and brain cholecystokinin receptor ligands. L-365,260, J. Med. Chem. 1989, 32, 14-24) as an internal non-specific standard. Controls (no compound) were also added. All samples were made in duplicate and repeated twice. All compounds were initially screened for percentage inhibition at 20 μm.

Assay [2] has as its target T2, CCKA receptor (Rattus norvegicus, UniProt P30551).
T2 construct: Pancreatic membranes were prepared in a similar way but by Charpentier et al; from tissue; host or cells: rat pancreas membranes
T2 sequence (P30551 1-444): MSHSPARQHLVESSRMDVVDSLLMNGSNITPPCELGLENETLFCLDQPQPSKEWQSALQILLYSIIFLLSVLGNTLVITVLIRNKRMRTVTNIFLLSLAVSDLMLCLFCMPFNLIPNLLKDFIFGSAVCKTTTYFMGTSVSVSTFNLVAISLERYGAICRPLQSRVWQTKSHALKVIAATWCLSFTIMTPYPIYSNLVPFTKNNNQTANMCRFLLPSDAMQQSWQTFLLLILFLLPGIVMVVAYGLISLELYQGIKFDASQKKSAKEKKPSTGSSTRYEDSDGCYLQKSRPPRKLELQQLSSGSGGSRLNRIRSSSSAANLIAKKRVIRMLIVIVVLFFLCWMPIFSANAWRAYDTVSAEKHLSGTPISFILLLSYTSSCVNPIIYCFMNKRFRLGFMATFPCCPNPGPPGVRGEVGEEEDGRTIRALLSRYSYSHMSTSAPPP
Nature of the assay: 125I-CCK-8 receptor binding assay, CCKA (rat pancreas membranes). As to conditions: for Ratio A/B: ratio of CCKB and CCKA IC50 values. The procedure: as §1, §2, §3

Where [3] appears, read: Table 1, phenyl pyrazolinone ureas, guinea pig cerebral cortex, 125I-Bolton-Hunter CCK 25 pM, read-out: IC50 CCKB.
Where [4] appears, read: Table 2, phenylpyrazolinone amides, guinea pig cerebral cortex, 125I-Bolton-Hunter CCK 25 pM, read-out: IC50 CCKB.
Setting [5] is: Table 2, phenylpyrazolinone amides, rat pancreas, 125I-Bolton-Hunter CCK 25 pM, read-out: IC50 CCKA.
Setting [6] is: Table 3, diphenyl pyrazolyl ureas, guinea pig cerebral cortex, 125I-Bolton-Hunter CCK 25 pM, read-out: IC50 CCKB.
The mark [7] stands for this setting: Table 3, diphenyl pyrazolyl ureas, rat pancreas, 125I-Bolton-Hunter CCK 25 pM, read-out: IC50 CCKA.
[8] abbreviates: Table 4, diphenyl pyrazolinone amides, guinea pig cerebral cortex, 125I-Bolton-Hunter CCK 25 pM, read-out: IC50 CCKB.
Where [9] appears, read: Table 4, diphenyl pyrazolinone amides, rat pancreas, 125I-Bolton-Hunter CCK 25 pM, read-out: IC50 CCKA.

As a reminder, the IC50 is the concentration needed to halve the response being measured.

Read-outs that look alike come from different tables or passages of the source.

Regarding `Cc1c(NC(=O)Nc2ccc(Cl)cc2)c(=O)n(-c2ccccc2)n1C` [Example 3, N-(4-chlorophenyl)-N′-(1,5-dihiethyl-3-oxo-2-phenyl-2,3-dihydro-1H-pyrazol-4-yl)urea], the 50% inhibitory concentration (IC50) in assay [1] (setting [3]) is 2500 nM.
On the same count and under the same terms, then `COc1ccc(NC(=O)Nc2c(C)n(C)n(-c3ccccc3)c2=O)cc1` [Example 6], with greater than 10000 nM.
On to `Cc1cccc(NC(=O)Nc2c(C)n(C)n(-c3ccccc3)c2=O)c1` [Example 8], for which the IC50 in assay [1] (setting [3]) turned out to be 5000 nM.
For `Cc1ccc(NC(=O)Nc2c(C)n(C)n(-c3ccccc3)c2=O)cc1` [Example 9], the IC50 in assay [1] (setting [3]) was greater than 20000 nM.
Same read-out and setting: to `Cc1c(NC(=O)Nc2cccc(Cl)c2)c(=O)n(-c2ccccc2)n1C` [Example 10] belongs greater than 10000 nM.
Take `Cc1c(NC(=O)Nc2ccc(Br)cc2)c(=O)n(-c2ccccc2)n1C` [Example 11]: in assay [1] (setting [3]), the IC50 was determined as 7000 nM.
The same measure, in the same setting: then `Cc1c(NC(=O)Nc2ccccc2[N+](=O)[O-])c(=O)n(-c2ccccc2)n1C` [Example 12], with greater than 20000 nM.
Still for that read-out and setting: to `Cc1c(NC(=O)NC2CCCCC2)c(=O)n(-c2ccccc2)n1C` [Example 14] belongs greater than 10000 nM.
On to `Cc1c(NC(=O)c2cc3ccccc3[nH]2)c(=O)n(-c2ccccc2)n1C` [Example 16], for which the results for the IC50 in assay [1] (setting [4]) and in assay [2] (setting [5]) were 900 nM and 80 nM, respectively. Moreover, the “Ratio A/B” value in assay [2] (Table 2) is 11.3.
With `Cc1c(NC(=O)CCc2c[nH]c3ccccc23)c(=O)n(-c2ccccc2)n1C` [Example 17, N-(1,5-Dimethyl-3-oxo-2-phenyl-2 3dihydro-1H-pyrazol-4yl)-3-(1H-indol-3-yl)propanamide], the half-maximal inhibitory concentration (IC50) in assay [1] (setting [4]) is 4000 nM; in assay [2] (setting [5]) it was 1000 nM. In assay [2] (Table 2), the “Ratio A/B” value was 4.
As for `Cc1c(NC(=O)c2c[nH]c3ccccc23)c(=O)n(-c2ccccc2)n1C` [Example 18], the IC50 in assay [1] was 15000 nM; in assay [2] it was 2000 nM.
On to `Cc1c(NC(=O)Cc2c[nH]c3ccccc23)c(=O)n(-c2ccccc2)n1C` [Example 19], for which the IC50 is 9000 nM in assay [1] (setting [4]) and 2000 nM in assay [2] (setting [5]).
For the molecule `COc1cccc(NC(=O)Nc2c(C)n(-c3ccccc3)n(-c3ccccc3)c2=O)c1` [Example 21, N-(5-methyl-3-oxo-1,2-diphenyl-2,3-dihydro-1H-pyrazol-4-yl)N′-3-methoxyphenylurea], the values for the IC50 in assay [1] (setting [6]) and in assay [2] (setting [7]) were 35 nM and 10 nM, respectively.
Consider `Cc1cccc(NC(=O)Nc2c(C)n(-c3ccccc3)n(-c3ccccc3)c2=O)c1` [Example 22, N-(5-Methyl-3-oxo-1,2-diphenyl-2,3-dihydro-1H-pyrazol4-yl)N′-3-methylphenylurea], for which the results for the IC50 in assay [1] (setting [6]) and in assay [2] (setting [7]) were 25 nM and 20 nM, respectively.
Turning to `Cc1c(NC(=O)Nc2ccc(Br)cc2)c(=O)n(-c2ccccc2)n1-c1ccccc1` [Example 24, N-(4-Bromophenyl)-N′-(5-methyl-3-oxo-1,2-diphenyk-2,3-dihydro-1H-pyrazol-4-yl)urea], the 50% inhibitory concentration (IC50) in assay [1] (setting [6]) was greater than 20000 nM.
As for `Cc1c(NC(=O)Nc2ccccc2[N+](=O)[O-])c(=O)n(-c2ccccc2)n1-c1ccccc1` [Example 25, N-(5-Methyl-3-oxo-1,2-diphenyl-2,3-dihydro-1H-pyrazol-4yl)N′-2-nitrophenylurea], the half-inhibitory concentration (IC50) in assay [1] (setting [6]) is 7500 nM.
On to `Cc1c(NC(=O)Nc2ccccc2)c(=O)n(-c2ccccc2)n1-c1ccccc1` [Example 26, N-(5-Methyl-3oxo-1,2diphenyl-2,3-dihydro-1H-pyrazol4-yl)—N′-phenylurea], for which the 50% inhibitory concentration (IC50) in assay [1] (setting [6]) is 3000 nM.
Regarding `Cc1c(NC(=O)NC2CCCCC2)c(=O)n(-c2ccccc2)n1-c1ccccc1` [Example 27], the IC50 in assay [1] (setting [6]) turned out to be 850 nM.
Same read-out and setting: to `COc1ccc(NC(=O)Nc2c(C)n(-c3ccccc3)n(-c3ccccc3)c2=O)cc1` [Example 29] belongs greater than 20000 nM; to `Cc1ccccc1NC(=O)Nc1c(C)n(-c2ccccc2)n(-c2ccccc2)c1=O` [Example 30], greater than 20000 nM; to `Cc1ccc(NC(=O)Nc2c(C)n(-c3ccccc3)n(-c3ccccc3)c2=O)cc1` [Example 31], greater than 20000 nM.
With `Cc1c(NC(=O)Nc2ccc(Cl)cc2)c(=O)n(-c2ccccc2)n1-c1ccccc1` [Example 32], the IC50 in assay [1] (setting [6]) was greater than 20000 nM.
On to `Cc1c(NC(=O)Nc2cccc3ccccc23)c(=O)n(-c2ccccc2)n1-c1ccccc1` [Example 34], for which the IC50 in assay [1] (setting [6]) was greater than 20000 nM.
As for `Cc1c(NC(=O)NC(C)(C)C)c(=O)n(-c2ccccc2)n1-c1ccccc1` [Example 35], in assay [1] (setting [6]), the IC50 was 1000 nM.
Consider `Cc1c(NC(=O)c2cc3ccccc3[nH]2)c(=O)n(-c2ccccc2)n1-c1ccccc1` [Example 36, N-(5-Methyl-3-oxo-1,2-diphenyl-2,3dihydro-1H-pyrazol-4yl)-1H-indole-2-carboxamide], for which the figures for the 50% inhibitory concentration (IC50) in assay [1] (setting [8]) and in assay [2] (setting [9]) were 30 nM and 20 nM, respectively. Moreover, in assay [2] (Table 4), the “Ratio A/B” value turned out to be 1.5.
In the case of `Cc1c(NC(=O)c2c[nH]c3ccccc23)c(=O)n(-c2ccccc2)n1-c1ccccc1` [Example 37, N-(5-Methyl-3-oxo-1,2-diphenyl-2,3-dihydro-1H-pyrazol-4yl)-1H-indole-3-carboxamide], the IC50 in assay [1] (setting [8]) stood at 3500 nM; in assay [2] (setting [9]), 2000 nM. Further, the “Ratio A/B” value in assay [2] (Table 4) was 1.8.
As for `Cc1c(NC(=O)Cc2c[nH]c3ccccc23)c(=O)n(-c2ccccc2)n1-c1ccccc1` [Example 38], the figures for the 50% inhibitory concentration (IC50) in assay [1] (setting [8]) and in assay [2] (setting [9]) were 2500 nM and 20 nM, respectively. In assay [2] (Table 4), the “Ratio A/B” value is recorded as 125.
As for `Cc1c(NC(=O)CCc2c[nH]c3ccccc23)c(=O)n(-c2ccccc2)n1-c1ccccc1` [Example 39, N-(5-Methyl-3-oxo-1,2-diphenyl-2,3-dihydro-1H-pyrazol-4-yl)-3-(1H-indol-3-yl)propanamide], the values for the concentration for half-maximal inhibition (IC50) in assay [1] (setting [8]) and in assay [2] (setting [9]) were 2000 nM and 25 nM, respectively. Besides, the “Ratio A/B” value in assay [2] (Table 4) came to 80.
For `Cc1c(NC(=O)CCCc2c[nH]c3ccccc23)c(=O)n(-c2ccccc2)n1-c1ccccc1` [Example 40, N-(5Methyl-3-oxo-1,2-diphenyl-2,3-dihydro-1H-pyrazol-4yl)-4-(1H-indol-3-yl)butanamide], the “Ratio A/B” value in assay [2] (Table 4) is recorded as 1.
